Experiment: Photoactivated welding of rabbit Achilles tendon pieces, tensile strength by tensiometer
Settings: mixture of 1.2 M DPD and 1.2 M DEDA in DMSO between two tendon pieces, 2 W, 500 sec (1,000 J)
Description: A rabbit Achilles tendon, previously stored at −70° C., was dissected from the remaining muscle, cleaned of fascia and muscle, and divided in half along its length.
One tendon piece was placed diagonally on a fused silica (UV transparent) glass slide and several drops of the mixture was placed in the center of the tendon piece. The other tendon piece was placed on top, forming an “X” shape with the mixture in between the two pieces at their intersection. Another identical slide was placed on top and light pressure was applied to the two slides.
The tendons and slides were then placed beneath a liquid light guide that delivered light from a filtered mercury-arc light source (320-500 nm, 2 W) and exposed for 500 sec (1,000 J).
After light exposure, the tendons were removed from the slide and placed on an illuminated grid beneath a CCD camera with a macro lens. An image of the overlapped (i.e. “welded”) area was digitized and stored. Measurement of the overlapped area was made using standard computer software.
The welded tendon was then placed in a tensiometer to measure tensile strength. One tendon end was clamped and attached to a strain gauge, while the opposite end of the other tendon clamped to a block moved by a lead screw.
The maximum force tolerated by the bonded tendon before breaking was divided by the bonded area to calculate the Maximum Stress in Newtons/cm^2.

SMILES: [N-]=[N+]=CC(=O)C(=O)NCCOCCOCCNC(=O)C(=O)C=[N+]=[N-] [DPD, N,N′-bis(3-diazapynivoyl)-2,2′-(ethylenedioxy)bis(ethylamine)]
- Observation of tendon welding after light exposure (320-500 nm): welded together
- Maximum Stress (maximum force tolerated by the bonded tendon before breaking divided by the bonded area) (filtered mercury-arc light 320-500 nm): 31.7 N/cm^2

Reference: patent US6783539B1, “Phototriggerable, collagen-crosslinking compounds for wound closure” (University of Kansas Medical Center, priority 2001, dated 2004)
